Results published in PubChem BioAssay (NCI).
Where “and” joins values, the source holds several entries; their conditions need not be identical. Equal values may be shown once.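 Grown in 96-well plates, cells were treated for 48 hours with each compound at five concentrations. Insufficient inhibition: endpoint recorded as highest concentration tested. The concentration for 50% growth inhibition is given as GI50. TGI: concentration producing complete growth inhibition.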

Key:
Assay in all cases: inhibition of tumour cell growth, NCI panel, 48 h
CAKI-1 renal = tested on: CAKI-1 renal
PC-3 prostate = tested on: PC-3 prostate
SK-MEL-28 melanoma = tested on: SK-MEL-28 melanoma
K-562 leukemia = tested on: K-562 leukemia
UACC-62 melanoma = tested on: UACC-62 melanoma
SK-OV-3 ovarian = tested on: SK-OV-3 ovarian
MALME-3M melanoma = tested on: MALME-3M melanoma
SNB-19 CNS = tested on: SNB-19 CNS
SF-539 CNS = tested on: SF-539 CNS
KM12 colon = tested on: KM12 colon

Compound	GI50 (CAKI-1 renal) [µM]	TGI (CAKI-1 renal)	GI50 (PC-3 prostate)	TGI (PC-3 prostate)	GI50 (SK-MEL-28 melanoma)	TGI (SK-MEL-28 melanoma)	GI50 (K-562 leukemia) [µM]	TGI (K-562 leukemia)	GI50 (UACC-62 melanoma)	TGI (UACC-62 melanoma)	GI50 (SK-OV-3 ovarian) [µM]	TGI (SK-OV-3 ovarian)	GI50 (MALME-3M melanoma)	TGI (MALME-3M melanoma)	GI50 (SNB-19 CNS)	TGI (SNB-19 CNS)	GI50 (SF-539 CNS) [µM]	TGI (SF-539 CNS) [µM]	GI50 (KM12 colon)	TGI (KM12 colon)
COc1cc2c3c(n(CCCCOC(=O)C(Cl)(Cl)Cl)c(=O)c2cc1OC)-c1cc2c(cc1C3=O)OCO2	4.61	> 100 µM	> 100 µM	> 100 µM	> 100 µM	> 100 µM	> 100	> 100 µM	22.5 µM	> 100 µM	> 100	> 100 µM	> 100 µM	> 100 µM	> 100 µM	> 100 µM	60.1	> 100	> 100 µM	> 100 µM
CON(C)C(=O)N1N=C(c2cc(F)ccc2F)SC1(CCCN)c1ccccc1 (stereo not given)	0.238	17.3 µM and 18.1 µM	0.0179 µM and < 0.01 µM	15 µM and 14.2 µM	10.6 µM and 2.97 µM	23.8 µM and 23.1 µM	< 0.01	15.1 µM and 14.3 µM	0.0618 µM and < 0.01 µM	18.8 µM and 16.2 µM	< 0.01	12.6 µM and 12.8 µM	13.3 µM and 10.5 µM	31.6 µM and 28.3 µM	0.109 µM and < 0.0132 µM	23.2 µM and 23.7 µM	0.027	0.351	0.028 µM and < 0.01 µM	13.5 µM and 12.9 µM
O=C(/C=C\n1cnc(-c2cc(C(F)(F)F)cc(C(F)(F)F)c2)n1)NNc1cnccn1	0.0414	12 µM	0.128 µM	15.7 µM	0.0672 µM	11 µM	0.0594	> 38.3 µM	0.232 µM	6.83 µM	0.643	25.3 µM	0.135 µM	10.5 µM	0.142 µM	13.4 µM	0.0286	1.12	0.492 µM	17 µM
CCCCCN(CCCCC)CC(O)c1ccc(Cl)c2ccccc12 (stereo not given)	3.35	18.6 µM	12.3 µM	31.5 µM	11.2 µM	24.4 µM	4.23	20.8 µM	6.25 µM	22.2 µM	13.8	37.5 µM	15.4 µM	32 µM	12.7 µM	30.1 µM	–	–	6.11 µM	25 µM
O=C1OC(c2ccco2)=N/C1=C\c1cccc([N+](=O)[O-])c1	–	> 100 µM	–	> 100 µM	–	> 100 µM	–	> 100 µM	–	> 100 µM	–	> 100 µM	–	> 100 µM	–	> 100 µM	–	> 100	–	> 100 µM
Cc1ccc2[nH]c(C(=O)NN3C(=O)C(C)SC34CCCC(C)C4)c(-c3ccccc3)c2c1 (stereo not given)	95.5	> 100 µM	55.1 µM	> 100 µM	> 100 µM	> 100 µM	35.1	> 100 µM	76.8 µM	> 100 µM	> 100	> 100 µM	69 µM	> 100 µM	> 100 µM	> 100 µM	> 100	> 100	65.6 µM	> 100 µM
O=c1[nH]c(=O)n(C2OC(CO)C(O)C(O)C2O)cc1F (stereo not given)	–	> 100 µM	–	> 100 µM	–	> 100 µM	–	> 100 µM	–	> 100 µM	–	> 100 µM	–	> 100 µM	–	> 100 µM	–	> 100	–	> 100 µM
COc1ccc(-n2cc(-c3cc(OC)c(OC)c(OC)c3)[nH]c2=O)cc1Cl	> 100	> 100 µM	> 100 µM	> 100 µM	> 100 µM	> 100 µM	> 100	> 100 µM	51.1 µM	> 100 µM	31.8	> 100 µM	> 100 µM	> 100 µM	42.6 µM	> 100 µM	35	> 100	> 100 µM	> 100 µM
COc1cc2c(c(OC)c1OC)-c1c(cc3c(c1OC)OCO3)C1OC2C(C)C1C (stereo not given) (tested in a mixture with another compound)	–	> 100 µM	–	> 100 µM	–	> 100 µM	–	> 100 µM	–	> 100 µM	–	> 100 µM	–	> 100 µM	–	> 100 µM	–	> 100	–	> 100 µM
COC(=O)[C@H](Cc1c[nH]c2ccccc12)NC(=O)[C@@H](OC)[C@@H]1Cc2cc3cc(OC4CC(OC5CC(O)C(O)C(C)O5)C(O)C(C)O4)c(C)c(O)c3c(O)c2C(=O)[C@H]1OC1CC(OC2CC(OC3CC(C)(O)C(O)C(C)O3)C(O)C(C)O2)C(O)C(C)O1 (stereo not given in full)	0.345	> 16.5 µM	0.0088 µM	0.412 µM	0.00424 µM	0.0193 µM	0.0118	> 16.5 µM	0.00361 µM	0.00983 µM	0.0116	> 16.5 µM	0.0039 µM	0.0184 µM	0.00777 µM	> 16.5 µM	0.00546	0.0244	0.00558 µM	1.05 µM
O=C(/C(=C/c1cccc([N+](=O)[O-])c1)c1ccccc1)c1ccccc1	3.18	10.2 µM	4.54 µM	36.2 µM	2.84 µM	8.97 µM	3.27	15.7 µM	2.8 µM	12.1 µM	3.69	10.2 µM	2.32 µM	5.81 µM	5.15 µM	19.7 µM	3.49	11.9	3.7 µM	13.1 µM
COc1ccc(-c2nnc(COc3ccc(NC(=O)Nc4ccc(Cl)c(C(F)(F)F)c4)cc3F)o2)cc1	4.07	29.2 µM	1.84 µM	12.7 µM	5.27 µM	54.6 µM	3.31	53.9 µM	3.12 µM	16.4 µM	5.86	31.5 µM	2.72 µM	7.63 µM	4.02 µM	24.2 µM	5.01	19.6	2.31 µM	11 µM
Cc1ccc2c(c1)CN(C(=O)CCC(=O)OCc1ccccc1)c1ccc(C)cc1CN2C(=O)CCC(=O)OCc1ccccc1	–	> 100 µM	–	> 100 µM	–	> 100 µM	–	> 100 µM	–	> 100 µM	–	> 100 µM	–	> 100 µM	–	> 100 µM	–	> 100	–	> 100 µM
COc1ccccc1Cn1cc2c(c1-c1ccccc1)CCc1cnoc1-2	1.86	> 100 µM	3.75 µM	> 100 µM	27 µM	> 100 µM	0.539	> 100 µM	2.34 µM	> 100 µM	3.5	> 100 µM	1.39 µM	> 100 µM	5.4 µM	> 100 µM	2.57	–	1.76 µM	> 100 µM
Cc1ccc(NC(=O)c2sc3nc(C)c(C(O)c4ccccc4)cc3c2N)cc1 (stereo not given)	0.45	25.9 µM	0.429 µM	20.7 µM	0.772 µM	> 100 µM	0.333	> 100 µM	0.621 µM	> 100 µM	0.768	30.6 µM	0.476 µM	53.7 µM	0.542 µM	> 100 µM	0.287	1.3	0.452 µM	> 61.9 µM
CS(=O)(=O)c1cc(=O)c2ccccc2s1	–	4.49 µM	–	33.4 µM	–	7.5 µM	–	3 µM	–	27.3 µM	–	32.3 µM	–	3.5 µM	–	36.5 µM	–	27.6	–	32.3 µM
COc1cc2c3c(n(CCNCCCNCCn4c5c(c6cc(OC)c(OC)cc6c4=O)C(=O)c4ccccc4-5)c(=O)c2cc1OC)-c1ccccc1C3=O	> 100	> 100 µM	0.0865 µM	2.09 µM	1.78 µM	5.07 µM	0.103	1.48 µM	1.2 µM	2.69 µM	7.02	32.2 µM	0.884 µM	6.19 µM	0.162 µM	4.26 µM	0.199	15.5	0.0754 µM	0.59 µM
Cc1ccc2c3c(c(=O)[nH]c2c1)C1(C(C#N)=C(N)O3)c2cc(Br)ccc2-c2ccc(Br)cc21	1.56	3.23 µM	1.85 µM	4 µM	3.48 µM	13.4 µM	2.96	12.6 µM	2.19 µM	11.3 µM	2.47	6.45 µM	1.51 µM	3.15 µM	2.12 µM	6.01 µM	1.73	3.21	1.67 µM	4.76 µM
CSc1nc2cc(S(=O)(=O)N3CCCCC3)ccc2s1	–	> 100 µM	–	> 100 µM	–	> 100 µM	–	> 100 µM	–	> 100 µM	–	> 100 µM	–	> 100 µM	–	> 100 µM	–	> 100	–	> 100 µM
Nc1nc(-c2cccc(Cl)c2)c(-c2ccc3ncccc3n2)s1	> 25	> 25 µM	> 25 µM	> 25 µM	> 25 µM	> 25 µM	> 25	> 25 µM	> 25 µM	> 25 µM	> 25	> 25 µM	> 25 µM	> 25 µM	> 25 µM	> 25 µM	> 25	> 25	> 25 µM	> 25 µM
CC[CH2][Sn]([Cl])([Cl])[CH2]CC.Oc1ccccc1C=NCCN=Cc1ccccc1O	2.46	12.7 µM	6.28 µM	22.7 µM	8.7 µM	21.6 µM	2.53	> 100 µM	5.77 µM	19.6 µM	17.2	35.1 µM	1.57 µM	4.61 µM	12.1 µM	25 µM	10.5	24.2	12.7 µM	25.9 µM
CCCCN1CSC(=S)N(Cc2ccccc2)C1	–	> 100 µM	–	> 100 µM	–	> 100 µM	–	> 100 µM	–	> 100 µM	–	> 100 µM	–	> 93.5 µM	–	> 100 µM	–	> 100	–	> 100 µM
Cc1nc(-c2ccccc2)c(-c2ccccc2)s1	–	62.3 µM	–	47.1 µM	–	> 100 µM	–	57.2 µM	–	56.8 µM	–	> 100 µM	–	46.8 µM	–	> 100 µM	–	71.4	–	71.2 µM
Cc1ccc(NC(=O)NCCCOc2ccc(N3C(N)=NC(N)=NC3(C)C)cc2Cl)cc1S(=O)(=O)F	70	> 100 µM	1.49 µM	> 100 µM	11.6 µM	> 100 µM	0.677	> 100 µM	4.05 µM	> 100 µM	43.6	> 100 µM	12 µM	81 µM	6.04 µM	> 100 µM	8.84	81.2	6.29 µM	> 100 µM
Nc1ncn(C2CC(O)C(CO)O2)c(=O)n1 (stereo not given)	–	> 375 µM	–	> 204 µM	–	> 324 µM	–	> 332 µM	–	265 µM	–	182 µM	–	> 375 µM	–	> 349 µM	–	158	–	> 281 µM
CC(C)CCCC(=O)CCCCCCC(=O)CCN(O)C(=O)C(N)CO (stereo not given)	–	39.4 µM	–	28.2 µM	–	41.5 µM	–	> 100 µM	–	34.6 µM	–	35.6 µM	–	36.6 µM	–	48.6 µM	–	37.4	–	35.9 µM
C=C1C(=O)O[C@H]2[C@H]1CC/C(COC(=O)c1cc3ccccc3s1)=C\CC[C@@]1(C)O[C@@H]21	1.46	2.99 µM	1.83 µM	3.59 µM	1.76 µM	3.57 µM	0.813	30.5 µM	1.85 µM	3.79 µM	13.9	26.8 µM	1.82 µM	3.75 µM	2.09 µM	4.97 µM	1.6	3.34	1.78 µM	4.08 µM
CC1(C)N=C(N)N=C(N)N1c1ccc(OCc2ccc(S(=O)(=O)F)c(Cl)c2)c(Cl)c1	–	–	0.502 µM	> 100 µM	8.61 µM	> 100 µM	0.448	> 100 µM	0.74 µM	> 100 µM	> 100	> 100 µM	1.97 µM	> 100 µM	6.76 µM	> 100 µM	4.57	> 100	3.35 µM	> 100 µM
